Assay results published in US20150038671A1, “Efficient Synthesis of CN2097 and RC7 and Their Analogs” (priority 2013, published 2015).
Starred links: 1 amine or outer side, 2 acyl side, 3 side chain; linkers in the order of their positions; H or OH if unused. Positions of bridges follow the written chain, without caps; N, C: chain ends. Non-standard residues stand in square brackets, D forms with d. Residues, ends and D or L forms follow the SMILES beside them. Chains are numbered I, II in the order given. Dmt = Cc1cc(O)cc(C)c1C[C@H](N)C(=O)O; X1 = O=C(CCN[*:2])[*:1]

Assay: Plasma stability (T1/2) in the blood plasma, HPLC analysis
Format: in vitro ADME
Conditions: time by which the compound was degraded by enzyme to the 50% of original amount
Method: The stability of CN2097 and Szeto CN2097 derivatives in blood was determined as follows.
The detection limit of CN2097 was measured by HPLC analysis. Various concentrations of CN2097 were prepared in PBS and injected in HPLC and monitored at 214 nm. The HPLC analysis of CN2097 using 50 microliter injection and detecting up to 500 micromolar. The lowest level of detection was at 2 micromolar, corresponding to 0.1 nmole or 237.68 ng (FIG. 13).
The T1/2 is the time by which the compound was degraded by enzyme to the 50% of original amount.

SMILES: CC(C)[C@H](NC(=O)[C@@H]1CCC(=O)NCCC(=O)NCCCC[C@H](NC(=O)[C@H](CCCCN)NC(=O)[C@H](Cc2ccc(O)cc2)NC(=O)[C@H](CC(N)=O)NC(=O)[C@H](CCCCN)NC(=O)[C@@H](N)CSSC[C@H](N)C(=O)N[C@@H](CCCNC(=N)N)C(=O)N[C@@H](CCCNC(=N)N)C(=O)N[C@@H](CCCNC(=N)N)C(=O)N[C@@H](CCCNC(=N)N)C(=O)N[C@@H](CCCNC(=N)N)C(=O)N[C@@H](CCCNC(=N)N)C(=O)N[C@@H](CCCNC(=N)N)C(N)=O)C(=O)N[C@@H]([C@@H](C)O)C(=O)N1)C(=O)O [CN2097] (I: H-CKNYKKTEV-OH / II: H-CRRRRRRR-NH2; disulfide I:1-II:1; linker I:6-I:8 via X1)
- half-life: ~48.2 min

SMILES: Cc1cc(O)cc(C)c1C[C@H](N)C(=O)N[C@H](CCCNC(=N)N)C(=O)N[C@@H](Cc1ccccc1)C(=O)N[C@@H](CCCCN)C(=O)N[C@@H](CSSC[C@H](N)C(=O)N[C@@H](CCCCN)C(=O)N[C@@H](CC(N)=O)C(=O)N[C@@H](Cc1ccc(O)cc1)C(=O)N[C@@H](CCCCN)C(=O)N[C@H]1CCCCNC(=O)CCNC(=O)CC[C@@H](C(=O)N[C@H](C(=O)O)C(C)C)NC(=O)[C@H]([C@@H](C)O)NC1=O)C(N)=O [Sezto-CN] (I: H-CKNYKKTEV-OH / II: H-[Dmt][dR]FKC-NH2; disulfide I:1-II:5; linker I:6-I:8 via X1)
- half-life: ~43.2 min

SMILES: CC(C)[C@H](NC(=O)[C@@H]1CCC(=O)NCCC(=O)NCCCC[C@H](NC(=O)[C@H](CCCCN)NC(=O)[C@H](Cc2ccc(O)cc2)NC(=O)[C@H](CC(N)=O)NC(=O)[C@H](CCCCN)NC(=O)[C@@H](N)CS)C(=O)N[C@@H]([C@@H](C)O)C(=O)N1)C(=O)O [CN, Cys-Lys-Asn-Tyr-Lys-[Lys-Thr-Glu(β Ala)]-Val (NH2-CKNYK-[KTE(β-A)]V—OH)] (H-CKNYKKTEV-OH; linker 6-8 via X1)
- half-life: ~28 min
